Reference: patent US8168668B2, “Compounds” (AstraZeneca AB, priority 2005, dated 2012)
pEC50, pIC50: −log10 of the molar value. In brackets after ≈: the same amount, converted by molar mass.

Columns and labels:
[1] = aqueous solubility test; type: physicochemical; settings: aqueous medium, pH 7.4, aqueous buffer
[2] = target: T1, hVR1 (Homo sapiens, UniProt Q8NER1); experiment: hVR1 FLIPR (Fluorometric Image Plate Reader) screening assay; type: cell-based; settings: inhibition of capsaicin-induced intracellular calcium increase
T1 construct: expressed in transfected cells
Experimental: 1. hVR1 FLIPR (Fluorometric Image Plate Reader) Screening Assay
Transfected CHO cells, stably expessing hVR1 (15,000 cells/well) are seeded in 50 ul media in a black clear bottom 384 plate (Greiner) and grown in a humidified incubator (37° C., 2% CO2), 24-30 hours prior to experiment.
Subsequently, the media is removed from the cell plate by inversion and 2 μM Fluo-4 is added using a multidrop (Labsystems). Following the 40 minutes dye incubation in the dark at 37° C. and 2% CO2, the extracellular dye present is washed away using an EMBLA (Scatron), leaving the cells in 40 ul of assay buffer (1×HBSS, 10 mM D-Glucose, 1 mM CaCl2, 10 mM HEPES, 10×7.5% NaHCO3 and 2.5 mM Probenecid).
FLIPR Assay—IC50 Determination Protocol
For IC50 determinations the fluorescence is read using FLIPR filter 1 (em […]). A is cellular baseline recording is taken for 30 seconds, followed by a 20 μl addition of 10, titrated half-log concentrations of the test compound, yielding cellular concentration ranging from 3 μM to 0.1 nM. Data is collected every 2 seconds for a further 5 minutes prior to the addition of a VR1 agonist solution: 20-50 nM solution of capsaicin by the FLIPR pipettor. The FLIPR continues to collect data for a further 4 minutes. Compounds having antagonistic properties against the hVR1 will inhibit the increase in intracellular calcium in response to the capsaicin addition. This consequently leading to a reduction in fluorescence signal and providing a reduced fluorescence reading, compared with no compound, buffer controls. Data is exported by the FLIPR program as a sum of fluorescence calculated under the curve upon the addition of capsaicin. Maximum inhibition, Hill slope and IC50 data for each compound are generated. […]

[3] = system: carrageenan-induced heat hyperalgesia; experiment: Carrageenan model, heat plantar test (paw withdrawal latency); type: in vivo; settings: rat, orally administered; for pEC50 / ED50: po; for pEC50 / ED50 / EC80: tested at Tmax; for Extrapolated Emax: non-linear regression; for Emax observed: reversal of heat hyperalgesia
[4] = system: FCA-induced heat hyperalgesia; experiment: Freund's Complete Adjuvant (FCA) model, heat plantar test (paw withdrawal latency); type: in vivo; settings: rat, orally administered

T1 sequence (Q8NER1 whole entry): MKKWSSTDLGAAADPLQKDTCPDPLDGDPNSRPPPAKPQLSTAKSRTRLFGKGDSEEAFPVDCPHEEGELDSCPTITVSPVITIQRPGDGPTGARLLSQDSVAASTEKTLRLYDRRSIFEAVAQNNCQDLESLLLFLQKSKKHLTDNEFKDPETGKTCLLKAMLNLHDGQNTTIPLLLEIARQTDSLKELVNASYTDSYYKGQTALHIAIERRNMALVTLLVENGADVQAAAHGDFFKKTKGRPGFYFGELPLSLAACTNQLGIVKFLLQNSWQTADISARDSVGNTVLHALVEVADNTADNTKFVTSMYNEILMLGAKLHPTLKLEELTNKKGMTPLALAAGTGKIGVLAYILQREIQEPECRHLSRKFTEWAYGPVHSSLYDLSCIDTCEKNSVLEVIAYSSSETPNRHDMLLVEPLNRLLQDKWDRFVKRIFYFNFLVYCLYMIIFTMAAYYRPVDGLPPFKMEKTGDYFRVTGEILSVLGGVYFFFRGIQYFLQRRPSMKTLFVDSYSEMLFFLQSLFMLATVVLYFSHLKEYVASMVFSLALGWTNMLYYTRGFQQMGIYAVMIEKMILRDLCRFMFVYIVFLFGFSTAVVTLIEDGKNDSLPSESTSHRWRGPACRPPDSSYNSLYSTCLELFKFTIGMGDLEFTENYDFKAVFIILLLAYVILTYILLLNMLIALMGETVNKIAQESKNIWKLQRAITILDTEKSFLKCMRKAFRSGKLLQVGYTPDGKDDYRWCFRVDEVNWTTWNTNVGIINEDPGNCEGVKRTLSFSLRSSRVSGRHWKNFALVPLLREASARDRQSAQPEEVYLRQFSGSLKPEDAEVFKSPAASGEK

| Compound | solubility [1] [µM] | pIC50 [2] | further results |
| --- | --- | --- | --- |
| CC(NC(=O)Cn1cnc2cccc(Cl)c21)c1ncc(C(F)(F)F)cc1Cl (stereo not shown) [Example 31, 2-(7-chloro-1H-benzimidazol-1-yl)-N-{1-[3-chloro-5-(trifluoromethyl)pyridin-2-yl]ethyl}acetamide] | 87 (≈ 36.3 µg/mL) | – | – |
| CC(NC(=O)Cn1cnc2cccc([N+](=O)[O-])c21)c1ccc(C(F)(F)F)cc1 (stereo not shown) [Example 37, 2-(7-nitro-1H-benzimidazol-1-yl)-N-{1-[4-(trifluoromethyl)phenyl]ethyl}acetamide] | – | 8.22 | – |
| CC(NC(=O)Cn1cnc2cccc([N+](=O)[O-])c21)c1ccc(OC2CCCC2)nc1 (stereo not shown) [Example 12, N-{1-[6-(cyclopentyloxy)pyridine-3-yl]ethyl}-2-(7-nitro-1H-benzimidazol-1-yl)acetamide] | – | 8.30 | – |
| CC(NC(=O)Cn1cnc2cccc([N+](=O)[O-])c21)c1ccc(OCC(F)F)cc1 (stereo not shown) [Example 19, N-{1-[4-(2,2-difluoroethoxy)phenyl]ethyl}-2-(7-nitro-1H-benzimidazol-1-yl)acetamide] | 75 (≈ 30.3 µg/mL) | – | – |
| CC(C)Oc1ccc(C(C)NC(=O)Cn2cnc3cccc(Cl)c32)cn1 (stereo not shown) [Example 35, 2-(7-chloro-1H-benzimidazol-1-yl)-N-[1-(6-isopropoxypyridin-3-yl)ethyl]acetamide] | 100 (≈ 37.3 µg/mL) | – | – |
| CC(NC(=O)Cn1cnc2cccc([N+](=O)[O-])c21)c1ccc(OCC(F)(F)F)cc1 (stereo not shown) [Example 14, 2-(7-nitro-1H-benzimidazol-1-yl)-N-{1-[4-(2,2,2-trifluoroethoxy)phenyl]ethyl}acetamide] | 63 (≈ 26.6 µg/mL) | – | – |
| CCC(NC(=O)Cn1cnc2cccc([N+](=O)[O-])c21)c1ccc(C(F)(F)F)cn1 (stereo not shown) [Example 29, 2-(7-nitro-1H-benzimidazol-1-yl)-N-{1-[5-(trifluoromethyl)pyridin-2-yl]propyl}acetamide] | 92 (≈ 37.5 µg/mL) | – | – |
| CO[C@@H](C)COc1ccc(C(C)NC(=O)Cn2cnc3cccc([N+](=O)[O-])c32)cc1C(F)(F)F (stereo partly drawn) [Example 47, N-{1-[4-{[(2S)-2-Methoxypropyl]oxy}-3-(trifluoromethyl)phenyl]ethyl}-2-(7-nitro-1H-benzimidazol-1-yl)acetamide] | – | 8.10 | – |
| C#Cc1ccc(C(C)NC(=O)Cn2cnc3cccc(Cl)c32)cc1 (stereo not shown) [Example 42, 2-(7-chloro-1H-benzimidazol-1-yl)-N-[1-(4-ethynylphenyl)ethyl]acetamide] | 77 (≈ 26 µg/mL) | – | – |
| CCOc1ccc([C@H](C)NC(=O)Cn2cnc3cccc([N+](=O)[O-])c32)cc1 [Example 6, N-[(1S)-1-(4-ethoxyphenyl)ethyl]-2-(7-nitro-1H-benzimidazol-1-yl)acetamide] | 72 (≈ 26.5 µg/mL) | – | – |
| CC(NC(=O)Cn1cnc2cccc([N+](=O)[O-])c21)c1ccc(C2CC2)cc1 (stereo not shown) [Example 40, N-[1-(4-cyclopropylphenyl)ethyl]-2-(7-nitro-1H-benzimidazol-1-yl)acetamide] | – | 8.52 | – |
| CC(C)Oc1ccc(C(C)NC(=O)Cn2cnc3cccc([N+](=O)[O-])c32)cn1 (stereo not shown) [Example 38, N-[1-(6-isopropoxypyridin-3-yl)ethyl]-2-(7-nitro-1H-benzimidazol-1-yl)acetamide] | 86 (≈ 33 µg/mL) | – | – |
| C[C@H](NC(=O)Cn1cnc2ccc(F)c(F)c21)c1ccc(C(C)(C)C)cc1 [Example 52, N-[(1S)-1-(4-tert-butylphenyl)ethyl]-2-(6,7-difluoro-1H-benzimidazol-1-yl)acetamide] | – | – | pEC50 [3]: 6.30; ED50 [3]: 37.4 µmol/kg; Extrapolated Emax [3]: >100%; Emax observed [3]: 74%; EC80 [3]: 1400 nM; pEC50 ([4]; po, tested at Tmax): 5.80; ED50 ([4]; po, tested at Tmax): 120 µmol/kg; Extrapolated Emax ([4]; non-linear regression): >100%; Emax observed ([4]; reversal of heat hyperalgesia): 78%; EC80 ([4]; tested at Tmax): 4600 nM |
| CC(NC(=O)Cn1cnc2cccc([N+](=O)[O-])c21)c1ncc(C(F)(F)F)cc1Cl (stereo not shown) [Example 32, N-{1-[3-chloro-5-(trifluoromethyl)pyridin-2-yl]ethyl}-2-(7-nitro-1H-benzimidazol-1-yl)acetamide] | 87 (≈ 37.2 µg/mL) | – | – |
| C[C@H](NC(=O)Cn1cnc2cccc([N+](=O)[O-])c21)c1ccc(OC(CF)CF)cc1 [Example 2, N-((1S)-1-{4-[2-fluoro-1-(fluoromethyl)ethoxy]phenyl}ethyl)-2-(7-nitro-1H-benzimidazol-1-yl)acetamide] | – | – | pEC50 [3]: 6.98; ED50 [3]: 1.3 µmol/kg; Extrapolated Emax [3]: 79%; Emax observed [3]: 79%; EC80 [3]: 170 nM |
| C#Cc1ccc(C(C)NC(=O)Cn2cnc3cccc([N+](=O)[O-])c32)cc1 (stereo not shown) [Example 41, N-[1-(4-ethynylphenyl)ethyl]-2-(7-nitro-1H-benzimidazol-1-yl)acetamide] | 82 (≈ 28.6 µg/mL) | – | – |
| CC(COc1cccc(C(F)(F)F)c1)NC(=O)Cn1cnc2cccc([N+](=O)[O-])c21 (stereo not shown) [Example 48, N-{1-methyl-2-[3-(trifluoromethyl)phenoxy]ethyl}-2-(7-nitro-1H-benzimidazol-1-yl)acetamide] | – | 8.15 | – |
| CC(NC(=O)Cn1cnc2cccc([N+](=O)[O-])c21)c1ccc(OC2CCCC2)c(F)c1 (stereo not shown) [Example 39, N-{1-[4-(cyclopentyloxy)-3-fluorophenyl]ethyl}-2-(7-nitro-1H-benzimidazol-1-yl)acetamide] | – | 9.00 | – |
| C#CC(C)Oc1ccc([C@H](C)NC(=O)Cn2cnc3cccc([N+](=O)[O-])c32)cc1 (stereo partly drawn) [Example 4, N-((1S)-1-{4-[(1-methylprop-2-yn-1-yl)oxy]phenyl}ethyl)-2-(7-nitro-1H-benzimidazol-1-yl)acetamide] | – | 8.52 | – |
| CC(C)Oc1ccc([C@H](C)NC(=O)Cn2cnc3cccc([N+](=O)[O-])c32)cc1 [Example 1, N-[(1S)-1-(4-isopropoxyphenyl)ethyl]-2-(7-nitro-1H-benzimidazol-1-yl)acetamide] | – | 9.00 | – |
| CC(NC(=O)Cn1cnc2cccc([N+](=O)[O-])c21)c1ccc(OCC(F)F)nc1 (stereo not shown) [Example 9, N-{1-[6-(2,2-difluoroethoxy)pyridin-3-yl]ethyl}-2-(7-nitro-1H-benzimidazol-1-yl)acetamide] | 98 (≈ 39.7 µg/mL) | – | – |
| C[C@H](NC(=O)Cn1cnc2cccc([N+](=O)[O-])c21)c1ccc(OCCF)cc1 [Example 3, N-{(1S)-1-[4-(2-fluoroethoxy)phenyl]ethyl}-2-(7-nitro-1H-benzimidazol-1-yl)acetamide] | 90 (≈ 34.8 µg/mL) | – | – |
| COCC(C)Oc1ccc([C@H](C)NC(=O)Cn2cnc3cccc([N+](=O)[O-])c32)cc1 (stereo partly drawn) [Example 5, N-{(1S)-1-[4-(2-methoxy-1-methylethoxy)phenyl]ethyl}-2-(7-nitro-1H-benzimidazol-1-yl)acetamide] | 97 (≈ 40 µg/mL) | – | – |
| CC(NC(=O)Cn1cnc2cccc([N+](=O)[O-])c21)c1ccc(OC(F)(F)F)cc1 (stereo not shown) [Example 36, 2-(7-nitro-1H-benzimidazol-1-yl)-N-{1-[4-(trifluoromethoxy)phenyl]ethyl}acetamide] | – | 8.05 | – |
| CC(NC(=O)Cn1cnc2cccc([N+](=O)[O-])c21)c1ccc(OC(F)(F)C(F)F)cc1 (stereo not shown) [Example 22, 2-(7-nitro-1H-benzimidazol-1-yl)-N-{1-[4-(1,1,2,2-tetrafluoroethoxy)phenyl]ethyl}acetamide] | – | 8.30 | – |
| CC(NC(=O)Cn1cnc2cccc([N+](=O)[O-])c21)c1ccc(C(F)(F)Cl)cc1 (stereo not shown) [Example 16, N-(1-{4-[chloro(difluoro)methyl]phenyl}ethyl)-2-(7-nitro-1H-benzimidazol-1-yl)acetamide] | – | 8.00 | – |
| CC[C@H](C)Oc1ccc([C@H](C)NC(=O)Cn2cnc3cccc([N+](=O)[O-])c32)cc1 [Example 15, N-[(1S)-1-(4-{[(1S)-1-methylpropyl]oxy}phenyl)ethyl]-2-(7-nitro-1H-benzimidazol-1-yl)acetamide] | – | 9.00 | – |
| CC(NC(=O)Cn1cnc2cccc([N+](=O)[O-])c21)c1ccc(C(F)(F)F)cn1 (stereo not shown) [Example 30, 2-(7-nitro-1H-benzimidazol-1-yl)-N-{1-[5-(trifluoromethyl)pyridin-2-yl]ethyl}acetamide] | 97 (≈ 38.2 µg/mL) | – | – |
| CC(NC(=O)Cn1cnc2cccc(C#N)c21)c1ccc(OC(CF)CF)cc1 (stereo not shown) [Example 24, 2-(7-cyano-1H-benzimidazol-1-yl)-N-(1-{4-[2-fluoro-1-(fluoromethyl)ethoxy]phenyl}ethyl)acetamide] | 94 (≈ 37.5 µg/mL) | – | – |
| CC(NC(=O)Cn1cnc2cccc([N+](=O)[O-])c21)c1ccc(OC2CCN(C)CC2)c(C(F)(F)F)c1 (stereo not shown) [Example 46, N-{1-[4-[(1-Methylpiperidin-4-yl)oxy]-3-(trifluoromethyl)phenyl]ethyl}-2-(7-nitro-1H-benzimidazol-1-yl)acetamide] | 100 (≈ 50.5 µg/mL) | – | – |
